Columns and labels:
[1] = pharmacokinetics after intravenous administration to rats; details: in vivo, rat
Procedure: The above compound is also administered intravenously to rats and found to have a relatively long terminal half life in blood of about 10 hours, with a systemic clearance of about 15 ml/min/kg and a volume of distribution of about 2 l/kg. It appears therefore that the relatively low oral bioavailability of the compound is due to low absorption from the gastrointestinal tract.

[2] = oral bioavailability in the rat; details: in vivo, read-out: absolute oral bioavailabilty
Procedure: The oral bioavailability of a model β-peptide according to the invention, β-HAla-β-HLys-β-HAla-β-HLeu-β-HLys-β-HAla-β-HLeu, TFA salt is determined in the rat using standard procedures. The absolute oral bioavailabilty is found to be about 1%. It is to be expected that greater oral bioavailability may be seeen with other compounds of the invention, having substituents selected to improve this property.

CC(C)C[C@@H](CC(=O)O)NC(=O)C[C@H](C)NC(=O)C[C@H](CCCCN)NC(=O)C[C@H](CC(C)C)NC(=O)C[C@H](C)NC(=O)C[C@H](CCCCN)NC(=O)C[C@H](C)N [β-HAla-β-HLys-β-HAla-β-HLeu-β-HLys-β-HAla-β-HLeu]
half-life ([1]; blood, read-out: terminal half life in blood (converted)): ~10 h
clearance ([1]; read-out: systemic clearance): ~15 mL/min/kg
Vd ([1]; read-out: volume of distribution): ~2 L/kg
bioavailability [2]: ~1%
